Test results from patent US20230295580A1, “SPHEROID GENERATOR, SPHEROID CULTURE KIT, AND SPHEROID CULTURE METHOD” (RESEARCH AND BUSINESS FOUNDATION SUNGKYUNKWAN UNIVERSITY, priority 2020, published 2023).

Tested on: cancer cells of the spheroid
Assay: Spheroid culture with anticancer substance injected through sub-injection part; live/dead cancer cell viability
Format: cell-based
Details: spheroid formed for 12 to 36 hours, then anticancer substance for 12 to 36 hours; increasing injected volume of TMZ; Dead/Live/Merge images, microscope
Description: Referring to FIG. 11 to FIG. 13, a spheroid generator 10 in which the size of a sub-injection part 18 is increased from one side to the other side of a culture plate 120 is disposed (S11). In this case, main injection parts 14 having the same size are formed in all of the spheroid generators 10.
A cancer cell solution 21 is prepared (S12). That is, the cancer cell solution 21 is prepared by mixing a plurality of cancer cells with a culture medium 24.
The cancer cell solution 21 is injected into the main injection parts 14 of the plurality of spheroid generators 10 (S13). In this case, since main injection parts 14 having the same size are formed in all of the spheroid generators 10, the same amount of the cancer cell solution 21 is injected into all of the main injection parts 14.
As the cancer cells of the cancer cell solution 21 are cultured in the plurality of spheroid generators 10, a spheroid 25 is formed (S14). In this case, the step of forming a spheroid 25 as the cancer cells of the cancer cell solution 21 are cultured in the plurality of spheroid generators 10 is performed for 12 to 36 hours.
An anticancer substance 23 is injected into a sub-injection part 18 of the plurality of spheroid generators 10 (S15). […]

With `Cn1nnc2c(C(N)=O)ncn2c1=O` [TMZ] the “relative viability of cancer cells” value was “decreases”.
